The nature of data set [1]: Rodent brain penetration study. In kind it is in vivo, Male Wister rats. The conditions noted are these: brain / whole blood; Wistar male rat; one value per compound, table lists intravenous 1 mg/kg and per oral 3 mg/kg, water; read-out: Brain Penetration Ratio (Cb/Cp). As for the experimental part: Male Wister rats (230-280 grams) obtained from NIN (National Institute of Nutrition, Hyderabad, India) was used as experimental animals. Three animals were housed in each cage. Animals were given water and food ad libitum throughout the experiment, and maintained on a 12 hours light/dark cycle.
New chemical entity (NCE) was dissolved in suitable vehicle and administered orally (3 or 10 mg/kg). Around Tmax (i.e, 0.5 hour, 1.0 hour and 2.0 hours) animals were sacrificed. Blood and brain tissue were collected and brain was homogenized to yield 20% w/v. Blood was stored at 2-8° C. and brain homogenate was frozen at −20° C. until analysis. The concentrations of NCE in blood and brain were quantified using LC-MS/MS method.
The NCE was quantified in blood and brain homogenate by partially validated LC-MS/MS method using acetonitrile precipitation technique. NCE compounds were quantified in the calibration range of 1-500 ng/mL in blood and brain homogenate. Study samples were analyzed using calibration samples in the batch and quality control samples spread across the batch. Extents of brain-blood ratio were calculated (Cb/Cp).

The subject of a further data set is Male Wister rats. Kind of data set: Object recognition task model. In kind it is in vivo, rat. The conditions noted are these: 10 mg/kg p.o. As to the method:
The cognition enhancing properties of compounds of this invention were estimated by using this model.
Male Wister rats (230-280 grams) obtained from N. I. N. (National Institute of Nutrition, Hyderabad, India) was used as experimental animals. Four animals were housed in each cage. Animals were kept on 20% food deprivation before one day and given water ad libitum throughout the experiment and maintained on a 12 hours light/dark cycle. Also the rats were habituated to individual arenas for 1 hour in the absence of any objects.
One group of 12 rats received vehicle (1 mL/Kg) orally and another set of animals received compound of the formula (I) either orally or i.p., before one hour of the familiar (T1) and choice trial (T2).
The experiment was carried out in a 50×50×50 cm open field made up of acrylic. In the familiarization phase, (T1), the rats were placed individually in the open field for 3 minutes, in which two identical objects (plastic bottles, 12.5 cm height×5.5 cm diameter) covered in yellow masking tape alone (a1 and a2) were positioned in two adjacent corners, 10 cms from the walls. After 24 hours of the (T1) trial for long-term memory test, the same rats were placed in the same arena as they were placed in T1 trial. Choice phase (T2) rats were allowed to explore the open field for 3 minutes in presence of one familiar object (a3) and one novel object (b) (Amber color glass bottle, 12 cm high and 5 cm in diameter). Familiar objects presented similar textures, colors and sizes. During the T1 and T2 trial, explorations of each object (defined as sniffing, licking, chewing or having moving vibrissae whilst directing the nose towards the object at a distance of less than 1 cm) were recorded separately by stopwatch. Sitting on an object was not regarded as exploratory activity, however, it was rarely observed. • T1 is the total time spent exploring the familiar objects (a1+a2). • T2 is the total time spent exploring the familiar object and novel object (a3+b).
The object recognition test was performed as described by Ennaceur, A., Delacour, J., 1988, A new one-trial test for neurobiological studies of memory in rats—Behavioural data, Behav. Brain Res., 31, 47-59.

For another data set, the target named is Histamine H3 receptor (UniProt Q9Y5N1). Kind of data set: Binding assay for human or rat histamine H3 receptor ([3H] R-α-methylhistamine). The conditions noted are these: [3H] R-α-methylhistamine 3.0 nM; rat brain frontal cortex or recombinant human receptor in CHO cells (not specified which). As to the method:
Compounds can be evaluated according to the following procedures.
• Receptor source: Rat brain frontal cortex or recombinant human cDNA expressed in CHO cells • Radioligand: [^3H] R-α-methylhistamine • Final ligand concentration—[3.0 nM] • Non-specific determinant: R-α-methylhistamine (100 uM) • Reference compound: R-α-methylhistamine • Positive control: R-α-methylhistamine Incubation Conditions:
Increasing concentrations of test compounds or standard were incubated with membrane receptors and radioligand in 5 mM MgCl2 and 50 mM TRIS-HCl (pH 7.4) for 60 minutes at room temperature. The reaction was terminated by rapid vacuum filtration onto the glass fiber filters. Radioactivity trapped onto the filters was determined and compared to the control values in order to ascertain any interactions of the test compound(s) with either cloned human or rat receptor binding site.

Data set [2] is described as follows: Rodent pharmacokinetic study. In kind it is in vivo, Male Wistar rats. The conditions noted are these: whole blood, Wistar male rat; for AUC(0-t) / Cmax / Tmax / half-life: water, blood. As for the experimental part: Male Wistar rats (230-280 grams) obtained from NIN (National Institute of Nutrition, Hyderabad, India) were used as an experimental animal. Three animals were housed in each cage. Animals were kept fasted over night and maintained on a 12 hours light/dark cycle. Three rats were dosed New chemical entity (NCE) orally (3 or 10 mg/kg) and intravenously (1 or 5 mg/kg) on day 0 and day 2.
At each time point blood was collected by jugular vein. Blood was stored at 2-8° C. until analysis. The concentrations of the NCE compound in blood were determined using LC-MS/MS method. Schedule time points: Pre dose 0.08, 0.25, 0.5, 1, 2, 4, 6, 8 and 24 hours after dosing (n=3). The NCE compounds were quantified in blood by partially validated LC-MS/MS method using acetonitrile precipitation technique. NCE compounds were quantified in the calibration range of 1-2000 ng/mL in blood. Study samples were analyzed using calibration samples in the batch and quality control samples spread across the batch.
Pharmacokinetic parameters were calculated by non-compartmental model using software WinNonlin version 5.0.1.

Data set [3] deals with rats. Description: Inhibition of food intake. The conditions noted are these: p.o., rats fasted 18 hours. In kind it is in vivo, rat. As for the experimental part: The anti-obesity properties of compounds of this invention were estimated using this model
The experiment consisted of 6 days. The rats were adapted to the 18 hours fasting and 6 hours feeding pattern. The animals were housed in a group of three in the cages provided with the fasting grills and was fasted for 18 hours. After 18 hours fasting the rats were separated and placed individually in the cage. Weighed amount of feed was provided to rats for 6 hours and the feed intake at 1 hour, 2 hours, 4 hours and 6 hours was measured
Again the rats were regrouped and fasted for 18 hours. The above procedure was followed for 5 days. The average cumulative food intake by the rats on the last 3 days was calculated. Animals were randomized on the basis of their previous three days food intake. On the day of experiment the rats were orally treated test compounds or vehicle. After 60 minutes, the feed was provided to the rats and the food intake at 1 hour, 2 hours, 4 hours and 6 hours was measured. The food intake by the rats treated with test compound was compared with the vehicle treated group by using Unpaired Student's t test.

In data set [4] the test system is rats. Description: Morris water maze, reversal of scopolamine induced amnesia. It counts as in vivo, rat. The note with it: p.o., dose giving reversal. As to the method:
The cognition-enhancing properties of compounds of this invention were estimated by using this model.
The water maze apparatus consisted of a circular pool (1.8 m diameter, 0.6 m high) constructed in black Perspex (TSE systems, Germany) filled with water (24±2° C.) and positioned underneath a wide-angled video camera to track animal. The 10 cm^2 perspex platform, lying 1 cm below the water surface, was placed in the centre of one of the four imaginary quadrants, which remained constant for all rats. The black Perspex used in the construction of the maze and platform offered no intramaze cues to guide escape behavior. By contrast, the training room offered several strong extramaze visual cues to aid the formation of the spatial map necessary for escape learning. An automated tracking system, [Videomot 2 (5.51), TSE systems, Germany] was employed. This program analyzes video images acquired via a digital camera and an image acquisition boards that determined path length, swim speed and the number of entries and duration of swim time spent in each quadrant of the water maze.

Setting [5] is: choice trial T2, 24 hours after T1.

The values that follow come from US8912179B2, “Heterocyclyl compounds as histamine H3 receptor ligands” (Suven Life Sciences Limited, priority 2010, dated 2014).

In the case of `O=C(C1CC1)N1CCc2nc(OC3CCN(C4CCC4)CC3)sc2C1.O=C(O)C(O)C(O)C(=O)O` [Example 4, [2-(1-Cyclobutyl-piperidin-4-yloxy)-6,7-dihydro-4H-thiazolo[5,4-c]pyridin-5-yl]-cyclopropyl-methanone tartrate], the Kp in data set [1] stood at 2.17 ± 0.17. Besides, the Inference result with Male Wister rats was “Active”. In addition, in the data set with Male Wister rats (setting [5]), the “Exploration time mean ± S.E.M, Familiar object” value amounted to 7.8 ± 1.36 s and the “Exploration time mean ± S.E.M, Novel object” value came out at 20.32 ± 2.22 s. Besides, at Histamine H3 receptor, the Ki was 7.2 nM. In data set [2] (intravenous, 1 mg/kg), the area under the curve AUC(0-t) was 348 ± 7 ng·h/mL, the Cmax turned out to be 320 ± 62 ng/mL, the time to peak (Tmax) came out at 4.8 min and the half-life is 75 ± 6.6 min. For the same molecule, in data set [2] (per oral 3 mg/kg vs intravenous 1 mg/kg), the bioavailability came out at 39 ± 8%. In data set [2] (per oral, 3 mg/kg), the area under the curve AUC(0-t) amounted to 407 ± 89 ng·h/mL, the maximum concentration (Cmax) is 199 ± 48 ng/mL, the Tmax turned out to be 40.2 ± 17.4 min and the half-life is 100 ± 12.6 min. In addition, the “Inhibition of food intake” value in the data set on rats [3] is given as 20 mg/kg, p.o. For the same molecule, the “Reversal of Scopolamine Induced amnesia” value in the data set on rats [4] was “≦10 mg/kg, p.o”.
